Type in all cases: functional
Assay [1] has as its system Plutella xylostella. The experiment in a line: Insecticidal activity against third-instar larvae of fufenozide-susceptible Plutella xylostella (diamondback moth) assessed as mortality by leaf-dip bioassay method.
Assay [2] deals with Plutella xylostella. The experiment in a line: Insecticidal activity against third-instar larvae of fufenozide-resistant Plutella xylostella (diamondback moth) assessed as mortality by leaf-dip bioassay method.
For assay [3], the system named is Plutella xylostella. Put plainly: Resistance ratio, ratio of LC50 for third-instar larvae of fufenozide-resistant Plutella xylostella (diamondback moth) to LC50 for third-instar larvae of fufenozide-susceptible Plutella xylostella.

In brackets after ≈: the same amount, converted by molar mass.

What is called LC50 is the concentration lethal to half of the exposed cells or organisms. In the case of `CNC(=O)ON=C(C)SC` [METHOMYL], the results for the LC50 in the assay on Plutella xylostella [1] and in the assay on Plutella xylostella [2] were 67.4 µg/mL (≈ 416 µM) and 130 µg/mL (≈ 798 µM), respectively. The RatioLC50 with Plutella xylostella [3] worked out at 1.92.
The matching figures for `CC[C@H](C)[C@H]1O[C@]2(C=C[C@@H]1C)C[C@@H]1C[C@@H](C/C=C(\C)[C@@H](O[C@H]3C[C@H](OC)[C@@H](O[C@H]4C[C@H](OC)[C@@H](O)[C@H](C)O4)[C@H](C)O3)[C@@H](C)/C=C/C=C3\CO[C@@H]4[C@H](O)C(C)=C[C@@H](C(=O)O1)[C@]34O)O2.CO[C@H]1C[C@H](O[C@H]2[C@H](C)O[C@@H](O[C@@H]3/C(C)=C/C[C@@H]4C[C@@H](C[C@]5(C=C[C@H](C)[C@@H](C(C)C)O5)O4)OC(=O)[C@@H]4C=C(C)[C@@H](O)[C@H]5OC/C(=C\C=C\[C@@H]3C)[C@]54O)C[C@@H]2OC)O[C@@H](C)[C@@H]1O` [ABAMECTIN]: 1.12 µg/mL, 7.87 µg/mL and 7.02.
For the compound `Cc1cc(C)cc(C(=O)N(NC(=O)c2ccc3c(c2C)OC(C)C3)C(C)(C)C)c1` (centres undefined) [FUXIAN], the LC50 was determined as 2.23 µg/mL (≈ 5.65 µM) in the assay on Plutella xylostella [1] and 676 µg/mL (≈ 1710 µM) in the assay with Plutella xylostella [2]. In addition, the RatioLC50 in the assay with Plutella xylostella [3] was found to be 302.8.
Regarding `CCc1ccc(C(=O)NN(C(=O)c2cc(C)cc(C)c2)C(C)(C)C)cc1` [TEBUFENOZIDE], the LC50 came to 12.6 µg/mL (≈ 35.7 µM) in the assay with Plutella xylostella [1] and 353 µg/mL (≈ 1000 µM) with Plutella xylostella [2]. In addition, the RatioLC50 in the assay on Plutella xylostella [3] is listed as 27.9.
Take `CC(C)(C)N(NC(=O)c1ccccc1)C(=O)c1ccccc1` [RH-5849]: the 50% lethal concentration (LC50) with Plutella xylostella [1] was found to be 10.6 µg/mL (≈ 35.8 µM); in the assay with Plutella xylostella [2], 114 µg/mL (≈ 385 µM). For the same compound, in the assay on Plutella xylostella [3], the RatioLC50 was 10.8.
In the case of `CCOCn1c(-c2ccc(Cl)cc2)c(C#N)c(Br)c1C(F)(F)F` [CHLORFENAPYR], the median lethal concentration (LC50) in the assay on Plutella xylostella [1] amounted to 2.96 µg/mL (≈ 7.26 µM); with Plutella xylostella [2] it was 3.3 µg/mL (≈ 8.1 µM). Further, the RatioLC50 with Plutella xylostella [3] is reported as 1.11.
As to `COc1cccc(C(=O)NN(C(=O)c2cc(C)cc(C)c2)C(C)(C)C)c1C` [METHOXYFENOZIDE], the LC50 in the assay on Plutella xylostella [1] is 7.33 µg/mL (≈ 19.9 µM); in the assay on Plutella xylostella [2], 276 µg/mL (≈ 748 µM). Also, in the assay on Plutella xylostella [3], the RatioLC50 came to 37.6.
On the same counts, the results for `O=C(NC(=O)c1c(F)cccc1F)Nc1cc(Cl)c(OC(F)(F)C(F)F)c(Cl)c1` [HEXAFLUMURON] are 9.56 µg/mL (≈ 20.7 µM), 274 µg/mL (≈ 594 µM) and 28.7.
`CC[C@H]1CCC[C@H](O[C@H]2CC[C@H](N(C)C)[C@@H](C)O2)[C@@H](C)C(=O)C2=C[C@@H]3[C@@H](C=C(C)[C@@H]4C[C@@H](O[C@@H]5O[C@@H](C)[C@H](OC)[C@@H](OC)[C@H]5OC)C[C@@H]34)[C@@H]2CC(=O)O1.CC[C@H]1CCC[C@H](O[C@H]2CC[C@H](N(C)C)[C@@H](C)O2)[C@@H](C)C(=O)C2=C[C@@H]3[C@@H](C=C[C@@H]4C[C@@H](O[C@@H]5O[C@@H](C)[C@H](OC)[C@@H](OC)[C@H]5OC)C[C@@H]34)[C@@H]2CC(=O)O1`: the 50% lethal concentration (LC50) worked out at 0.188 µg/mL with Plutella xylostella [1] and 0.439 µg/mL in the assay on Plutella xylostella [2]. Moreover, the RatioLC50 in the assay with Plutella xylostella [3] is reported as 2.34.
For the compound `CCOP(=S)(OCC)O/N=C(\C#N)c1ccccc1` [PHOXIM], the LC50 in the assay with Plutella xylostella [1] amounted to 102 µg/mL (≈ 341 µM); in the assay with Plutella xylostella [2], 161 µg/mL (≈ 540 µM). In addition, in the assay on Plutella xylostella [3], the RatioLC50 came to 1.58.
Regarding `O=C(NC(=O)c1c(F)cccc1F)Nc1ccc(Cl)cc1` [DIFLUBENZURON], the results for the LC50 in the assay on Plutella xylostella [1] and in the assay with Plutella xylostella [2] were 19.9 µg/mL (≈ 64.1 µM) and 342 µg/mL (≈ 1100 µM), respectively. Also, in the assay on Plutella xylostella [3], the RatioLC50 stood at 17.2.
On the same counts, the results for `CC1(C)[C@H](C=C(Cl)Cl)[C@H]1C(=O)O[C@@H](C#N)c1cccc(Oc2ccccc2)c1` [BETA-CYPERMETHRIN] are 35.2 µg/mL (≈ 84.6 µM), 47.5 µg/mL (≈ 114 µM) and 1.35.
With `CCOP(=S)(OCC)Oc1nc(Cl)c(Cl)cc1Cl` [CHLORPYRIFOS], the LC50 in the assay with Plutella xylostella [1] was 122 µg/mL (≈ 349 µM); in the assay with Plutella xylostella [2], 215 µg/mL (≈ 613 µM). The RatioLC50 in the assay with Plutella xylostella [3] turned out to be 1.75.

The record behind these values is ChEMBL document CHEMBL3044869, “Cross-resistance patterns and fitness in fufenozide-resistant diamondback moth, Plutella xylostella (Lepidoptera: Plutellidae)” (2012).
